Reference: patent US9346798B2, “Dihydrobenzoxazine and tetrahydroquinoxaline sodium channel inhibitors” (AMGEN INC., priority 2012, dated 2016)

Legend:
Format in all cases: cell-based
[1] = molecular target: T1, Nav 1.7 (Homo sapiens (Human), UniProt Q15858); experiment: Nav 1.7 in vitro assay, IonWorks Quattro (IWQ) population patch-clamp; conditions: HEK 293 cells stably transfected with Nav 1.7; 26th pulse to -20 mV
[2] = molecular target: T1, Nav 1.7; experiment: Nav 1.7 in vitro PX assay, PatchXpress whole cell voltage clamp; conditions: HEK 293 cells stably transfected with human Nav1.7; for IC50: partially inactivated state (20 to 50% inactivation); for inhibition at 4.9 µM: HEK293, values marked *, read-out: Nav 1.7 PX percent inhibition at 4.9 μM
How it was run: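 Partially inactivated channels (20–50% inactivation at holding potential) were probed on automated patch clamp in stably transfected HEK293 cells, stepping to −10 mV for 20 msec every 10 s (0.1 Hz).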

[3] = molecular target: Nav 1.5 (Homo sapiens (Human), UniProt Q14524); experiment: Nav 1.5 in vitro assay, IonWorks Quattro (IWQ) population patch-clamp; conditions: HEK 293 cells stably transfected with Nav 1.5; 26th pulse to -20 mV
Chain of Nav 1.5 (Q14524 whole entry): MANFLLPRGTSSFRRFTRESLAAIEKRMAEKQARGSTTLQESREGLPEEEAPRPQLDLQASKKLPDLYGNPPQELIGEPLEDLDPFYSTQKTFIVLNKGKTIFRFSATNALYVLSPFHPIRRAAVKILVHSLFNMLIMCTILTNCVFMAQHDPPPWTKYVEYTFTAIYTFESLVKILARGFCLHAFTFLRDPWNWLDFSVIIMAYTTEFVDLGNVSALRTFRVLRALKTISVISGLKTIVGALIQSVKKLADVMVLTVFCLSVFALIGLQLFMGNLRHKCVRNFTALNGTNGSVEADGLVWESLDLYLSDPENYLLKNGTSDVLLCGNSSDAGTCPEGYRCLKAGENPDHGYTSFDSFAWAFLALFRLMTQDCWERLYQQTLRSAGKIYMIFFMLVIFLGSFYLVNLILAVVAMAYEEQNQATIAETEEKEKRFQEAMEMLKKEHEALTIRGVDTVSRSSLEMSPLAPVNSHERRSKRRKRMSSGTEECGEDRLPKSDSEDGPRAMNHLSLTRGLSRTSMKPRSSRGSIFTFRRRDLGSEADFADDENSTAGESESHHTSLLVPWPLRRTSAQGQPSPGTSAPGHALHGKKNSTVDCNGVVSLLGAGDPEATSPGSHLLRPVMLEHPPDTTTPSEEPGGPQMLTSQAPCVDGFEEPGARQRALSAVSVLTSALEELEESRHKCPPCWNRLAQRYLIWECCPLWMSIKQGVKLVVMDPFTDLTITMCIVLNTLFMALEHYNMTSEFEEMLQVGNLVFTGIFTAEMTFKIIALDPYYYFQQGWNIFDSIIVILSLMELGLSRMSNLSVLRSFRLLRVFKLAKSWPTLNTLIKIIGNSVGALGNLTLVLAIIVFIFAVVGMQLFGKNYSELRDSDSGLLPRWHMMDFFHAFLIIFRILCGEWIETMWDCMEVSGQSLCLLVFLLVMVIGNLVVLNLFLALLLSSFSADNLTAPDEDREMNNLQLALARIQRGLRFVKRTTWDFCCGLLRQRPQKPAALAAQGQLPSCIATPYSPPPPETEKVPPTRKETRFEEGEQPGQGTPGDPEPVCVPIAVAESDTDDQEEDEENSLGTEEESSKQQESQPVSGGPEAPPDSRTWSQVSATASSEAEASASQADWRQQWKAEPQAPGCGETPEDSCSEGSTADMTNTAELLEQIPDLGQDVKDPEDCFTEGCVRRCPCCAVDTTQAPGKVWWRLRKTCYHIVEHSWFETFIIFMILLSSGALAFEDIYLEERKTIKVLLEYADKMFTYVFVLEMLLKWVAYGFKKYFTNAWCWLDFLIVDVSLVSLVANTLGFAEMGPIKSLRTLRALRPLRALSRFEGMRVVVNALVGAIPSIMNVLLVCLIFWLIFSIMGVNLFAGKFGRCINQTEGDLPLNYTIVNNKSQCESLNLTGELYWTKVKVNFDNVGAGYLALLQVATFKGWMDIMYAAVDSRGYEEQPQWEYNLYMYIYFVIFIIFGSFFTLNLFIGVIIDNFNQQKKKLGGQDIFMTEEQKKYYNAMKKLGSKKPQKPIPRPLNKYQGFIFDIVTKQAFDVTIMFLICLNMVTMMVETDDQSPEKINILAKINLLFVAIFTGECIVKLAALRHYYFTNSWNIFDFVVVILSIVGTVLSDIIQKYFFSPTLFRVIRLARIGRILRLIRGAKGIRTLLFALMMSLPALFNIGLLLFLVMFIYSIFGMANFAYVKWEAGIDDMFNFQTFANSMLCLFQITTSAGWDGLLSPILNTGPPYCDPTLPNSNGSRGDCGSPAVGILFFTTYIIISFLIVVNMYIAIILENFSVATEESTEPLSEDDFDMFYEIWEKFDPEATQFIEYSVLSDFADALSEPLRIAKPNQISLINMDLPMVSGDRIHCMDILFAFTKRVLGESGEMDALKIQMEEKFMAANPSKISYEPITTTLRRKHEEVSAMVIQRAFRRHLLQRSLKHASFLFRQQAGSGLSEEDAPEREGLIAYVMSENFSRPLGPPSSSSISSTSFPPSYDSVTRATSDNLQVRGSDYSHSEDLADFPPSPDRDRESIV

T1 sequence (Q15858 whole entry): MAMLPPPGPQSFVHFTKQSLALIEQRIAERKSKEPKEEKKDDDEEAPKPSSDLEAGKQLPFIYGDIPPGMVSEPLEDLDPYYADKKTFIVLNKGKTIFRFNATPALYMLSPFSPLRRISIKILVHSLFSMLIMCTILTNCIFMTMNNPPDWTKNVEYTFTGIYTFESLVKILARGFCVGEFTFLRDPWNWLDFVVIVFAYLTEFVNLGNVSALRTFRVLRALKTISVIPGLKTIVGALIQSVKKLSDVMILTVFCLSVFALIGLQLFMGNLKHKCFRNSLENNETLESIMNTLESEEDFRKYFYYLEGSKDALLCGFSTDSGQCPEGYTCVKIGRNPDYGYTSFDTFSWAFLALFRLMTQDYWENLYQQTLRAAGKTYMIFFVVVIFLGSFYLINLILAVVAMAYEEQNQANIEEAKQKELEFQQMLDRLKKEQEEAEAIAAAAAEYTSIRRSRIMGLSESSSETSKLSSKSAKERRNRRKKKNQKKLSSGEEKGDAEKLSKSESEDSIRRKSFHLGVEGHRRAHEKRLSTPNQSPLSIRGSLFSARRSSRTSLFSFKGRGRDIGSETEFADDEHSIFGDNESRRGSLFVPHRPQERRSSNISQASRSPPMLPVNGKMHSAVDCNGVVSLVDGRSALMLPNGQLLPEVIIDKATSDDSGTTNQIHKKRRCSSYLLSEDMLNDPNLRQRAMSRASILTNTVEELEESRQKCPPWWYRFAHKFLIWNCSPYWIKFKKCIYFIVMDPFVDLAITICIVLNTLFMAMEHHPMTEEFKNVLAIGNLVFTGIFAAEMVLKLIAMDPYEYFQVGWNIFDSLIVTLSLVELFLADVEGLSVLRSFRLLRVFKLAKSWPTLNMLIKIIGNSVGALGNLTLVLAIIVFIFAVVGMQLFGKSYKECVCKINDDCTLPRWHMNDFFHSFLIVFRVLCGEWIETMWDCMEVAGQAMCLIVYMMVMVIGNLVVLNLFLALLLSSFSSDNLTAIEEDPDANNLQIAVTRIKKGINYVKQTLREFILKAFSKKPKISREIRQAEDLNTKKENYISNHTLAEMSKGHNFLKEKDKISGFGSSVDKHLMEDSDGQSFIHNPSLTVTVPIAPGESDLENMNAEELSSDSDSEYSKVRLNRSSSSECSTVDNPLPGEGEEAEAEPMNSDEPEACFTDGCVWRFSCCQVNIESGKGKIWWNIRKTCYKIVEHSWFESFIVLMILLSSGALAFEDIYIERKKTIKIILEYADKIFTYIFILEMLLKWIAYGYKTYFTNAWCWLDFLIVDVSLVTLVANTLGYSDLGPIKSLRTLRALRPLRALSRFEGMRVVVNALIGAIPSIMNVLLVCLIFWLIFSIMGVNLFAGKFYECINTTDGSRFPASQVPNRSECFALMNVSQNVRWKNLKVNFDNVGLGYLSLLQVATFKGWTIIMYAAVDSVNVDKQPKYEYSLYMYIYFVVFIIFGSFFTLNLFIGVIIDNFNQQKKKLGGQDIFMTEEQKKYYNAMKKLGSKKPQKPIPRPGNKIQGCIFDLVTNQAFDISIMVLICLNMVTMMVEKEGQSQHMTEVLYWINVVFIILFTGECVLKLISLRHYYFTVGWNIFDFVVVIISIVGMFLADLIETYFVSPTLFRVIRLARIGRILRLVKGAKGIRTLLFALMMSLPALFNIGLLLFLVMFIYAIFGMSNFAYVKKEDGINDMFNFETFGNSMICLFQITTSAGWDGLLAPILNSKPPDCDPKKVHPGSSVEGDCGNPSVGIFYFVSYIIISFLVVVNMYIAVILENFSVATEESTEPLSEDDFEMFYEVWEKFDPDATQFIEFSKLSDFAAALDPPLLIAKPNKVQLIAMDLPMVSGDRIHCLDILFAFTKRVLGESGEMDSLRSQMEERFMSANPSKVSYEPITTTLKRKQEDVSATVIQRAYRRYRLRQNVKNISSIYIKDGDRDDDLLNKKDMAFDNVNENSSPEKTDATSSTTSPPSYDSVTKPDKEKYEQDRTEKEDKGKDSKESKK

IC50 [1] | IC50 [2] | inhibition at 4.9 µM [2] | SMILES | IC50 [3]
154 nM | 1930 nM |  | N#Cc1ccccc1N1CCOc2cc(S(=O)(=O)Nc3ncns3)ccc21 [Example 57, 4-(2-Cyanophenyl)-N-(1,2,4-Thiadiazol-5-Yl)-3,4-Dihydro-2H-Benzo[B][1,4]Oxazine-7-Sulfonamide] | 6700 nM
225 nM | 2550 nM |  | N#Cc1ccccc1N1CCOc2cc(S(=O)(=O)Nc3nccs3)ccc21 [Example 58, 4-(2-Cyanophenyl)-N-(Thiazol-2-Yl)-3,4-Dihydro-2H-Benzo[B][1,4]Oxazine-7-Sulfonamide 2,2,2-Trifluoroacetate] | 6300 nM
15 nM | 252 nM |  | O=S(=O)(Nc1nccs1)c1ccc2c(c1)OCCN2c1ccccc1C1=CCNCC1 [Example 59, 4-(2-(1,2,3,6-Tetrahydropyridin-4-Yl)Phenyl)-N-(Thiazol-2-Yl)-3,4-Dihydro-2H-Benzo[B][1,4]Oxazine-7-Sulfonamide 2,2,2-Trifluoroacetate] | 5570 nM
1470 nM |  | 24.4% | O=S(=O)(Nc1ccccn1)c1ccc2c(c1)OCCN2c1ccc(C(F)(F)F)cc1Br [Example 60, 4-(2-Bromo-4-(Trifluoromethyl)Phenyl)-N-(Pyridin-2-Yl)-3,4-Dihydro-2H-Benzo[B][1,4]Oxazine-7-Sulfonamide] | > 10000 nM
679 nM | 2430 nM |  | O=S(=O)(Nc1cscn1)c1ccc2c(c1)OCCN2c1ccc(C(F)(F)F)cc1Br [Example 61, 4-(2-Bromo-4-(Trifluoromethyl)Phenyl)-N-(Thiazol-4-Yl)-3,4-Dihydro-2H-Benzo[B][1,4]Oxazine-7-Sulfonamide] | > 10000 nM
49 nM | 282 nM |  | O=S(=O)(Nc1ccccn1)c1ccc2c(c1)OCCN2c1ccc(C(F)(F)F)cc1C1=CCNCC1 [Example 62, N-(Pyridin-2-Yl)-4-(2-(1,2,3,6-Tetrahydropyridin-4-Yl)-4-(Trifluoromethyl)Phenyl)-3,4-Dihydro-2H-Benzo[B][1,4]Oxazine-7-Sulfonamide] | > 10000 nM
27 nM | 144 nM |  | O=S(=O)(Nc1cscn1)c1ccc2c(c1)OCCN2c1ccc(C(F)(F)F)cc1C1=CCNCC1 [Example 63, 4-(2-(1,2,3,6-Tetrahydropyridin-4-Yl)-4-(Trifluoromethyl)Phenyl)-N-(Thiazol-4-Yl)-3,4-Dihydro-2H-Benzo[B][1,4]Oxazine-7-Sulfonamide] | 2670 nM
418 nM | 1070 nM |  | [N-]=[N+]=Nc1ccc(N2CCOc3cc(S(=O)(=O)Nc4nccs4)ccc32)c(Br)c1 [Example 64, 4-(4-Azido-2-Bromophenyl)-N-(Thiazol-2-Yl)-3,4-Dihydro-2H-Benzo[B][1,4]Oxazine-7-Sulfonamide 2,2,2-Trifluoroacetate] | > 10000 nM
158 nM | 1750 nM |  | O=S(=O)(Nc1nccs1)c1ccc2c(c1)OCCN2c1cccc2ccncc12 [Example 68, 4-(Isoquinolin-8-Yl)-N-(Thiazol-2-Yl)-3,4-Dihydro-2H-Benzo[B][1,4]Oxazine-7-Sulfonamide 2,2,2-Trifluoroacetate] | 4830 nM
3780 nM |  | 33.9% | O=S(=O)(Nc1nccs1)c1ccc2c(c1)OCCN2c1ccc2nccnc2c1 [Example 69, 4-(Quinoxalin-6-Yl)-N-(Thiazol-2-Yl)-3,4-Dihydro-2H-Benzo[B][1,4]Oxazine-7-Sulfonamide 2,2,2-Trifluoroacetate] | 4440 nM
638 nM | 5690 nM |  | O=S(=O)(Nc1nccs1)c1ccc2c(c1)OCCN2c1ccc2scnc2c1 [Example 70, 4-(Benzo[D]Thiazol-5-Yl)-N-(Thiazol-2-Yl)-3,4-Dihydro-2H-Benzo[B][1,4]Oxazine-7-Sulfonamide 2,2,2-Trifluoroacetate] | > 10000 nM
182 nM | 706 nM |  | Cc1cccc(N2CCOc3cc(S(=O)(=O)Nc4nccs4)ccc32)c1 [Example 75, N-(Thiazol-2-Yl)-4-(M-Tolyl)-3,4-Dihydro-2H-Benzo[B][1,4]Oxazine-7-Sulfonamide 2,2,2-Trifluoroacetate] | 7370 nM

Continued, compound first:

SMILES | IC50 [1] | IC50 [2] | inhibition at 4.9 µM [2] | IC50 [3]
O=S(=O)(Nc1ccncn1)c1ccc2c(c1)OCCN2c1ccc(C(F)(F)F)cc1C1=CCNCC1 [Example 45, N-(Pyrimidin-4-Yl)-4-(2-(1,2,3,6-Tetrahydropyridin-4-Yl)-4-(Trifluoromethyl)Phenyl)-3,4-Dihydro-2H-Benzo[B][1,4]Oxazine-7-Sulfonamide 2,2,2-Trifluoroacetate] | 6.2 nM | 135 nM |  | 1200 nM
O=S(=O)(Nc1nccs1)c1ccc2c(c1)OCCN2c1ccccc1Cl [Example 46, 4-(2-Chlorophenyl)-N-(Thiazol-2-Yl)-3,4-Dihydro-2H-Benzo[B][1,4]Oxazine-7-Sulfonamide] | 165 nM | 1080 nM |  | > 10000 nM
O=S(=O)(Nc1ccncn1)c1ccc2c(c1)OCCN2c1ccc(C(F)(F)F)cc1Br [Example 47, 4-(2-Bromo-4-(Trifluoromethyl)Phenyl)-N-(Pyrimidin-4-Yl)-3,4-Dihydro-2H-Benzo[B][1,4]Oxazine-7-Sulfonamide] | 14.5 nM | 303 nM |  | 7930 nM
COCCNc1cc(C(F)(F)F)ccc1N1CCOc2cc(S(=O)(=O)Nc3ccncn3)ccc21 [Example 48, 4-(2-((2-Methoxyethyl)Amino)-4-(Trifluoromethyl)Phenyl)-N-(Pyrimidin-4-Yl)-3,4-Dihydro-2H-Benzo[B][1,4]Oxazine-7-Sulfonamide] | 28.5 nM | 719 nM |  | > 10000 nM
N#Cc1cc(C(F)(F)F)ccc1N1CCOc2cc(S(=O)(=O)Nc3nccs3)ccc21 [Example 49, 4-(2-Cyano-4-(Trifluoromethyl)Phenyl)-N-(Thiazol-2-Yl)-3,4-Dihydro-2H-Benzo[B][1,4]Oxazine-7-Sulfonamide] | 15 nM | 193 nM |  | 1150 nM
CN1CCN(c2cc(C(F)(F)F)ccc2N2CCOc3cc(S(=O)(=O)Nc4nccs4)ccc32)CC1 [Example 50, 4-(2-(4-Methylpiperazin-1-Yl)-4-(Trifluoromethyl)Phenyl)-N-(Thiazol-2-Yl)-3,4-Dihydro-2H-Benzo[B][1,4]Oxazine-7-Sulfonamide 2,2,2-Trifluoroacetate] | 117 nM | 315 nM |  | 957 nM
O=S(=O)(Nc1nccs1)c1ccc2c(c1)OCCN2c1ccc(C(F)(F)F)cc1-c1ccncc1 [Example 53, 4-(2-(Pyridin-4-Yl)-4-(Trifluoromethyl)Phenyl)-N-(Thiazol-2-Yl)-3,4-Dihydro-2H-Benzo[B][1,4]Oxazine-7-Sulfonamide 2,2,2-Trifluoroacetate] | 22.5 nM | 203 nM |  | 554 nM
O=S(=O)(Nc1nccs1)c1ccc2c(c1)OCCN2c1ccc(C(F)(F)F)cc1-c1cncnc1 [Example 54, 4-(2-(Pyrimidin-5-Yl)-4-(Trifluoromethyl)Phenyl)-N-(Thiazol-2-Yl)-3,4-Dihydro-2H-Benzo[B][1,4]Oxazine-7-Sulfonamide 2,2,2-Trifluoroacetate] | 11.5 nM | 585 nM |  | 731 nM
O=S(=O)(Nc1ccno1)c1ccc2c(c1)OCCN2c1ccc(C(F)(F)F)cc1Cl [Example 55, 4-(2-Chloro-4-(Trifluoromethyl)Phenyl)-N-(Isoxazol-5-Yl)-3,4-Dihydro-2H-Benzo[B][1,4]Oxazine-7-Sulfonamide] | 2920 nM | 19900 nM |  | > 10000 nM
N#Cc1cc(Cl)ccc1N1CCOc2cc(S(=O)(=O)Nc3nccs3)ccc21 [Example 56, 4-(4-Chloro-2-Cyanophenyl)-N-(Thiazol-2-Yl)-3,4-Dihydro-2H-Benzo[B][1,4]Oxazine-7-Sulfonamide] | 51 nM | 265 nM |  | 4790 nM
[N-]=[N+]=Nc1ccc(N2CCOc3cc(S(=O)(=O)Nc4nccs4)ccc32)c(C2=CCNCC2)c1 [Example 65, 4-(4-Azido-2-(1,2,3,6-Tetrahydropyridin-4-Yl)Phenyl)-N-(Thiazol-2-Yl)-3,4-Dihydro-2H-Benzo[B][1,4]Oxazine-7-Sulfonamide Bis(2,2,2-Trifluoroacetate)] | 24 nM | 24.4 nM |  | 5280 nM
O=S(=O)(Nc1nccs1)c1ccc2c(c1)OCCN2c1ccc2ncccc2c1 [Example 66, 4-(Quinolin-6-Yl)-N-(Thiazol-2-Yl)-3,4-Dihydro-2H-Benzo[B][1,4]Oxazine-7-Sulfonamide 2,2,2-Trifluoroacetate] | 3730 nM |  | 22.8% | > 10000 nM
Cc1ccc(Cl)c(N2CCOc3cc(S(=O)(=O)Nc4nccs4)ccc32)c1 [Example 67, 4-(2-Chloro-5-Methylphenyl)-N-(Thiazol-2-Yl)-3,4-Dihydro-2H-Benzo[B][1,4]Oxazine-7-Sulfonamide 2,2,2-Trifluoroacetate] | 381 nM | 442 nM |  | 5330 nM
O=S(=O)(Nc1nccs1)c1ccc2c(c1)OCCN2c1ccc2ncsc2c1 [Example 71, 4-(Benzo[D]Thiazol-6-Yl)-N-(Thiazol-2-Yl)-3,4-Dihydro-2H-Benzo[B][1,4]Oxazine-7-Sulfonamide 2,2,2-Trifluoroacetate] | 605 nM | 5320 nM |  | > 10000 nM
O=S(=O)(Nc1nccs1)c1ccc2c(c1)OCCN2c1ccc(Cl)c(Cl)c1 [Example 74, 4-(3,4-Dichlorophenyl)-N-(Thiazol-2-Yl)-3,4-Dihydro-2H-Benzo[B][1,4]Oxazine-7-Sulfonamide 2,2,2-Trifluoroacetate] | 5240 nM | 4070 nM |  | 6080 nM
